16 compounds from patent publication US10485800B2, “Mixed lineage kinase inhibitors for HIV/AIDS therapies” (UNIVERSITY OF ROCHESTER, priority 2012, dated 2019) can be followed below.

Chain of MLK3 (Q16584 whole entry): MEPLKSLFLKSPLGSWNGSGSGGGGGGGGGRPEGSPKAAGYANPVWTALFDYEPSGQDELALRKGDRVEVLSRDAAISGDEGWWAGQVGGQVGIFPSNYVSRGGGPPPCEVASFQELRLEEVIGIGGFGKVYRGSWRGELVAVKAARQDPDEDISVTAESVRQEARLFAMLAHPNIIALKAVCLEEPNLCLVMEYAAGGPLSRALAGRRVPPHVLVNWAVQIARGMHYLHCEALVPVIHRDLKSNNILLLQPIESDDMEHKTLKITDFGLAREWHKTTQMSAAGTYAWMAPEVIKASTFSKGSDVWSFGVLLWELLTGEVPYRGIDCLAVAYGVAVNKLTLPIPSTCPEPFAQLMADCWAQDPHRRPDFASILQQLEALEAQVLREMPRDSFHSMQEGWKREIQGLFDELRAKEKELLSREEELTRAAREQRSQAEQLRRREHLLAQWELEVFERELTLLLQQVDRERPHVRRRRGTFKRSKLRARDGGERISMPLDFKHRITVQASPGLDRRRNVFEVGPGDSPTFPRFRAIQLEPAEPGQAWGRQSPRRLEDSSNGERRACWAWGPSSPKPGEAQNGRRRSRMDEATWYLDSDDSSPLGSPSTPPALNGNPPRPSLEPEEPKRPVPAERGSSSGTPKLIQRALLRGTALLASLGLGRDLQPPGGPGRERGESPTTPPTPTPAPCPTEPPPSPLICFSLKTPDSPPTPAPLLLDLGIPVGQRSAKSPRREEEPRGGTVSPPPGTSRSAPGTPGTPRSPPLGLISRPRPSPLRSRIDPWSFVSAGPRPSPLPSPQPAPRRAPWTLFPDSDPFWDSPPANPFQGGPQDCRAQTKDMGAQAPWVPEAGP

One assay has as its target MLK3 (Homo sapiens (Human), UniProt Q16584). Put plainly: Radiometric filter plate MLK3 assay. Type of assay: biochemical. As to conditions: 2 μM cold ATP (Km), 1 μM inactive MKK7b, twenty minute incubation; read-out: MK3 IC50. The method, then:
After a twenty minute incubation, the reactions were washed through filter plates and read on a scintillation counter. Results are shown in Table 9 below, in which +++ indicates ≤0.1 μM, ++ indicates >0.1 μM and ≤1 μM, and + indicates >1 μM.
Usually IC50 stands for the concentration at which inhibition is half-maximal. Take `COc1cc(-c2cnc3[nH]c(=O)n(-c4ccc5[nH]c(C)cc5c4)c3n2)cc(OC)c1OC` [Example 72, 1-(2-methyl-1H-indol-5-yl)-6-(3,4,5-trimethoxyphenyl)-1H-imidazo[4,5-b]pyrazin-2(3H)-one]: the concentration for half-maximal inhibition (IC50) is under 0.1 µM.

Consider `Cc1cc2cc(-n3c(=O)[nH]c4ncc(-c5cc(Cl)cc(Cl)c5)nc43)ccc2[nH]1` [Example 73, 6-(3,5-dichlorophenyl)-1-(2-methyl-1H-indol-5-yl)-1H-imidazo[4,5-b]pyrazin-2(3H)-one], for which the IC50 is over 1 µM. As to `COc1cc(-c2cnc3[nH]c(=O)n(C4CCCC4)c3n2)cc(OC)c1OC` [Example 74, 1-cyclopentyl-6-(3,4,5-trimethoxyphenyl)-1H-imidazo[4,5-b]pyrazin-2(3H)-one], the IC50 is under 0.1 µM. As to `COc1ccc(-c2cnc3[nH]c(=O)n(C4CCCC4)c3n2)cc1OC` [Example 75, 1-cyclopentyl-6-(3,4-dimethoxyphenyl)-1H-imidazo[4,5-b]pyrazin-2(3H)-one], the half-inhibitory concentration (IC50) was over 1 µM. With `O=c1[nH]c2ncc(-c3ccncc3)nc2n1C1CCCC1` [Example 77, 1-cyclopentyl-6-(pyridin-4-yl)-1H-imidazo[4,5-b]pyrazin-2(3H)-one], the 50% inhibitory concentration (IC50) is over 1 µM.

Turning to `O=c1[nH]c2ncc(-c3cc(Cl)cc(Cl)c3)nc2n1CC1CC1` [Example 80, 1-(cyclopropylmethyl)-6-(3,5-dichlorophenyl)-1H-imidazo[4,5-b]pyrazin-2(3H)-one], the half-maximal inhibitory concentration (IC50) was over 1 µM. On to `O=c1[nH]c2ncc(-c3ccc(O)cc3)nc2n1CC1CC1` [Example 81, 1-(cyclopropylmethyl)-6-(4-hydroxyphenyl)-1H-imidazo[4,5-b]pyrazin-2(3H)-one], for which the IC50 is over 1 µM.

Take `O=c1[nH]c2ncc(-c3ccncc3)nc2n1CC1CC1` [Example 82, 1-(cyclopropylmethyl)-6-(pyridin-4-yl)-1H-imidazo[4,5-b]pyrazin-2(3H)-one]: the half-inhibitory concentration (IC50) is over 1 µM. Take `Cc1cc2cc(-n3c(=O)[nH]c4ncc(-c5ccncc5)nc43)ccc2[nH]1` [Example 85, 1-(2-methyl-1H-indol-5-yl)-6-(pyridin-4-yl)-1H-imidazo[4,5-b]pyrazin-2(3H)-one]: the IC50 was over 1 µM. For the compound `O=c1[nH]c2ncc(-c3ccc(N4CCOCC4)cc3)nc2n1CC1CC1` [Example 86, 1-(cyclopropylmethyl)-6-(4-morpholinophenyl)-1H-imidazo[4,5-b]pyrazin-2(3H)-one], the IC50 is over 1 µM. Still for that read-out and setting: under `COc1ccc(-c2cnc3[nH]c(=O)n(-c4ccc5[nH]ncc5c4)c3n2)cc1OC` [Example 87, 6-(3,4-dimethoxyphenyl)-1-(1H-indazol-5-yl)-1H-imidazo[4,5-b]pyrazin-2(3H)-one] stands over 1 µM; under `O=c1[nH]c2ncc(-c3ccncc3)nc2n1-c1ccc2[nH]ncc2c1` [Example 88, 1-(1H-indazol-5-yl)-6-(pyridin-4-yl)-1H-imidazo[4,5-b]pyrazin-2(3H)-one], over 1 µM; under `O=c1[nH]c2ncc(-c3ccc(N4CCOCC4)cc3)nc2n1-c1ccc2[nH]ncc2c1` [Example 89, 1-(1H-indazol-5-yl)-6-(4-morpholinophenyl)-1H-imidazo[4,5-b]pyrazin-2(3H)-one], over 1 µM. Regarding `O=c1[nH]c2ncc(-c3ccc(O)cc3)nc2n1-c1ccc2cn[nH]c2c1` [Example 92, 6-(4-hydroxyphenyl)-1-(1H-indazol-6-yl)-1H-imidazo[4,5-b]pyrazin-2(3H)-one], the half-maximal inhibitory concentration (IC50) was over 1 µM.

On to `COc1cc(OC)c(-c2cnc3[nH]c(=O)n(C4CCCC4)c3n2)c(OC)c1` [Example 94, 1-cyclopentyl-6-(2,4,6-trimethoxyphenyl)-1H-imidazo[4,5-b]pyrazin-2(3H)-one], for which the half-inhibitory concentration (IC50) was over 1 µM.

Staying with this assay, now noted: read-out: MK3 IC50.
For the compound `COc1cc(-c2cnc3[nH]c(=O)n(-c4ccc5[nH]ncc5c4)c3n2)cc(OC)c1OC` [Example 83, 1-(1H-indazol-5-yl)-6-(3,4,5-trimethoxyphenyl)-1H-imidazo[4,5-b]pyrazin-2(3H)-one], the concentration for half-maximal inhibition (IC50) was in the range of 0.1 to 1 µM.
